Measurements from US12083101B2, “Biaryl derivatives as YAP/TAZ-TEAD protein-protein interaction inhibitors” (Novartis AG, priority 2020, dated 2024).

Legend:
MKN-45/Ubc-luc cells [1] = experiment: Reporter gene specificity control (Ubc-luciferase), MKN-45; details: Homo sapiens, MKN-45, 24 h, read-out: Reporter gene assay MKN-45 IC50 [μM], MKN-45/Ubc-luc cells (YAP deleted, specificity control), 24 hours incubation
[2] = system: NCI-H2052 Tet-On shYAP_2371 pLenti6 MCAT_Luc cells; experiment: Proliferation assay (resazurin), NCI-H2052; type: cell-based; details: Homo sapiens, NCI-H2052, 72 h, 72 hours incubation
Experimental: (§1) This cell line was also transduced with a Tet-pLKO-puro-based construct mediating tetracycline-inducible expression of a short-hairpin directed against the 3′UTR of the YAP1 mRNA (5′-[…]-3′).
(§2) Stock solutions of compounds were prepared at a concentration of 10 mM in DMSO and stored at 4° C. Where necessary to afford a full dose-response curve, the stock solutions were pre-diluted in DMSO to 1'000-fold the desired reduced start concentration. On the day after cell seeding, eleven 2-fold serial dilutions of each compound were dispensed directly into the cell assay plates using a HP 300D non-contact Digital Dispenser (TECAN, Mannedorf, Switzerland). The final concentration of DMSO was normalized to 0.1% in all wells.
(§3) The functional effect of compounds on cell proliferation was assessed using NCI-H2052 Tet-On shYAP_2371 pLenti6 MCAT_Luc and MKN-45/Ubc-luc cells by quantifying the reducing capacity of live cells using the redox indicator dye resazurin. […] For data analysis, the assay background value determined in wells containing medium, but no cells, was subtracted from all data points. […] The effect of a particular test compound concentration on cell proliferation/viability was expressed as percentage of day 0-corrected fluorescence reading obtained for cells treated with vehicle only (DMSO, final concentration 0.1%), which was set as 100%, whereas the fluorescence reading for wells containing medium only, but no cells, was set as −100%. Compound concentrations leading to half-maximal growth inhibition (GI50) were determined using standard four parameter curve fitting.

MKN-45/Ubc-luc cells [3] = experiment: Proliferation assay (resazurin), MKN-45; type: cell-based; details: Homo sapiens, 72 hours incubation
Experimental: As a specificity control, MKN-45 cells were stably transduced with a Ubc-Luc reporter construct, in which constitutive expression of firefly luciferase is driven by the promoter of the ubiquitin C housekeeping gene.
as §2, §3

[4] = target: Avi-humanTEAD4 217-434 / Cy5 labeled humanYAP 60-100 (Homo sapiens (Human), UniProt Q15561); experiment: TR-FRET YAP-TEAD4 in-vitro biochemical assay; type: binding; details: 1 nM Avi-humanTEAD4 217-434, 20 nM Cy5-humanYAP 60-100, 1 h room temperature
[5] = system: NCI-H2052 Tet-On shYAP_2371 pLenti6 MCAT_Luc cells (YAP-dependent transcription); experiment: YAP reporter gene activity assay (MCAT-luciferase), NCI-H2052; type: cell-based; details: Homo sapiens, NCI-H2052, 24 h, 24 hours incubation, BrightGlo luminescence
Experimental: as §1, §2
The ability of compounds to inhibit YAP-dependent transcription was assessed in NCI-H2052 Tet-On shYAP_2371 pLenti6 MCAT_Luc cells, while specificity (lack of unspecific inhibition of luciferase expression of activity) was assessed in MKN-45/Ubc-luc cells. […] Following incubation for 24 hours at 37° C., compound-mediated modulation of reporter-gene activity was quantified 5 min after addition of 20 μl BrightGlo (Promega, Cat #E2620), by measuring luminescence intensity on a multi-mode plate-reader (TECAN, Männedorf, Switzerland, Integration time 100 ms). For data analysis, the assay background value determined in wells containing medium, but no cells, was subtracted from all data points. Dose-dependent compound effects were expressed as % of vehicle-treated control (luminescence signal produced by cells receiving DMSO only) and IC50s calculated using a four-parametric fit model.

Avi-humanTEAD4 217-434 / Cy5 labeled humanYAP 60-100, sequence (Q15561 217-434): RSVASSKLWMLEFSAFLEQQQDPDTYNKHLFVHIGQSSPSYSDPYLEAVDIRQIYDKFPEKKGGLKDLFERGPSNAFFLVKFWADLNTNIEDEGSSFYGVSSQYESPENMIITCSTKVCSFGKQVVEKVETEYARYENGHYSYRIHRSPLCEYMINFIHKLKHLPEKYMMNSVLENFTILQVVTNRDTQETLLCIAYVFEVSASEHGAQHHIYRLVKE

Row | Compound | IC50 (MKN-45/Ubc-luc cells [1]) | GI50 [2] | GI50 (MKN-45/Ubc-luc cells [3]) | IC50 [4] | IC50 [5]
1 | COc1ccc(C(N)=O)c(-c2c(Cl)c(F)cc3c2C[C@@](CN)(c2ccccc2)O3)c1F (atropisomer, axis not shown) [Example 33, 2-((2S,4S)-2-(aminomethyl)-5-chloro-6-fluoro-2-phenyl-2,3-dihydrobenzofuran-4-yl)-3-fluoro-4-methoxybenzamide] | > 10 µM | 0.161 µM | > 10 µM | 0.003 µM | 0.161 µM
2 | NC[C@@]1(c2ccccc2)Cc2c(cc(F)c(Cl)c2-c2c(C(N)=O)ccc(OC(F)F)c2F)O1 (atropisomer, axis not shown) [Example 35, 2-((2S,4S)-2-(aminomethyl)-5-chloro-6-fluoro-2-phenyl-2,3-dihydrobenzofuran-4-yl)-4-(difluoromethoxy)-3-fluorobenzamide] | > 10 µM | 0.31 µM | > 10 µM | 0.009 µM | 0.276 µM
3 | COCCOc1ccc(C(N)=O)c(-c2c(Cl)c(F)cc3c2C[C@@](CN)(c2ccccc2)O3)c1F (atropisomer, axis not shown) [Example 37, 2-((2S,4S)-2-(aminomethyl)-5-chloro-6-fluoro-2-phenyl-2,3-dihydrobenzofuran-4-yl)-3-fluoro-4-(2-methoxyethoxy)benzamide] | > 10 µM | 0.052 µM | > 10 µM | 0.002 µM | 0.033 µM
4 | NC[C@@]1(c2ccccc2)Cc2c(cc(F)c(Cl)c2-c2c(C(N)=O)ccc(OCCO)c2F)O1 (atropisomer, axis not shown) [Example 38, 2-((2S,4S)-2-(aminomethyl)-5-chloro-6-fluoro-2-phenyl-2,3-dihydrobenzofuran-4-yl)-3-fluoro-4-(2-hydroxyethoxy)benzamide] | > 10 µM | 0.029 µM | > 10 µM | 0.002 µM | 0.024 µM
5 | NC[C@@]1(c2ccccc2)Cc2c(cc(F)c(Cl)c2-c2cc(SC(F)(F)CO)ccc2C(N)=O)O1 (atropisomer, axis not shown) [Example 39, 2-((2S,4R)-2-(aminomethyl)-5-chloro-6-fluoro-2-phenyl-2,3-dihydrobenzofuran-4-yl)-4-((1,1-difluoro-2-hydroxyethyl)thio)benzamide] | > 10 µM | 2.83 µM | > 10 µM | 0.102 µM | 2.15 µM
6 | COc1ncc(C(N)=O)c(-c2c(Cl)c(F)cc3c2C[C@@](CN)(c2ccccc2)O3)c1F (atropisomer, axis not shown) [Example 42, 4-((2S,4S)-2-(aminomethyl)-5-chloro-6-fluoro-2-phenyl-2,3-dihydrobenzofuran-4-yl)-5-fluoro-6-methoxynicotinamide] | > 10 µM | 0.493 µM | 9.4 µM | 0.006 µM | 0.391 µM
7 | NC[C@@]1(c2ccccc2)Cc2c(cc(F)c(Cl)c2-c2c(C(N)=O)cnc(OCCO)c2F)O1 (atropisomer, axis not shown) [Example 43, 4-((2S,4S)-2-(Aminomethyl)-5-chloro-6-fluoro-2-phenyl-2,3-dihydrobenzofuran-4-yl)-5-fluoro-6-(2-hydroxyethoxy)nicotinamide] | > 10 µM | 0.094 µM | > 10 µM | 0.005 µM | 0.047 µM
8 | CNC[C@@]1(c2ccccc2)Cc2c(cc(F)c(Cl)c2-c2c(C(N)=O)cnc(OCCOC)c2F)O1 (atropisomer, axis not shown) [Example 47, 4-((2S,4S)-5-Chloro-6-fluoro-2-((methylamino)methyl)-2-phenyl-2,3-dihydrobenzofuran-4-yl)-5-fluoro-6-(2-methoxyethoxy)nicotinamide] | > 10 µM | 0.035 µM | > 10 µM | 0.004 µM | 0.05 µM
9 | CNC[C@@]1(c2ccccc2)Cc2c(cc(F)c(Cl)c2-c2c(C(=O)NC)ccc(OCCO)c2F)O1 (atropisomer, axis not shown) [Example 51, 2-((2S,4S)-5-Chloro-6-fluoro-2-((methylamino)methyl)-2-phenyl-2,3-dihydrobenzofuran-4-yl)-3-fluoro-4-(2-hydroxyethoxy)-N-methylbenzamide] | > 10 µM | 0.071 µM | > 10 µM | 0.003 µM | 0.062 µM
10 | CNC[C@@]1(c2ccccc2)Cc2c(cc(F)c(Cl)c2-c2c(C(=O)NC)ccc(OC[C@H](C)O)c2F)O1 (atropisomer, axis not shown) [Example 52, 2-((2S,4S)-5-chloro-6-fluoro-2-((methylamino)methyl)-2-phenyl-2,3-dihydrobenzofuran-4-yl)-3-fluoro-4-((S)-2-hydroxypropoxy)-N-methylbenzamide] | > 10 µM | 0.174 µM | > 10 µM | 0.011 µM | 0.109 µM
11 | NC(=O)c1ccc(OCCO)c(F)c1-c1c(Cl)c(F)cc2c1C[C@@](CN[C@H]1C[C@H](CO)C1)(c1ccccc1)O2 (atropisomer, axis not shown) [Example 64a, 2-((2S,4S)-5-chloro-6-fluoro-2-((((trans)-3-(hydroxymethyl)cyclobutyl)amino)methyl)-2-phenyl-2,3-dihydrobenzofuran-4-yl)-3-fluoro-4-(2-hydroxyethoxy)benzamide] | > 10 µM | 0.036 µM | > 10 µM | 0.002 µM | 0.015 µM
12 | NC(=O)c1ccc(OCCO)c(F)c1-c1c(Cl)c(F)cc2c1C[C@@](CN[C@H]1C[C@@H](CO)C1)(c1ccccc1)O2 (atropisomer, axis not shown) [Example 64b, 2-((2S,4S)-5-chloro-6-fluoro-2-((((cis)-3-(hydroxymethyl)cyclobutyl)amino)methyl)-2-phenyl-2,3-dihydrobenzofuran-4-yl)-3-fluoro-4-(2-hydroxyethoxy)benzamide] | > 10 µM | 0.041 µM | > 10 µM | 0.003 µM | 0.022 µM
13 | C[C@]1(O)CC[C@H](NC[C@@]2(c3ccccc3)Cc3c(cc(F)c(Cl)c3-c3c(C(N)=O)ccc(-n4ccnc4)c3F)O2)CC1 (atropisomer, axis not shown) [Example 69a, 2-((2S,4S)-5-chloro-6-fluoro-2-((((trans)-4-hydroxy-4-methylcyclohexyl)amino)methyl)-2-phenyl-2,3-dihydrobenzofuran-4-yl)-3-fluoro-4-(1H-imidazol-1-yl)benzamide] | > 10 µM | 0.111 µM | > 10 µM | 0.005 µM | 0.08 µM
14 | C[C@]1(O)CC[C@@H](NC[C@@]2(c3ccccc3)Cc3c(cc(F)c(Cl)c3-c3c(C(N)=O)ccc(-n4ccnc4)c3F)O2)CC1 (atropisomer, axis not shown) [Example 69b, 2-((2S,4S)-5-chloro-6-fluoro-2-((((cis)-4-hydroxy-4-methylcyclohexyl)amino)methyl)-2-phenyl-2,3-dihydrobenzofuran-4-yl)-3-fluoro-4-(1H-imidazol-1-yl)benzamide] | 7.8 µM | 0.171 µM | 6.7 µM | 0.004 µM | 0.114 µM
15 | NC(=O)c1ccc(OC(F)F)c(F)c1-c1c(Cl)c(F)cc2c1C[C@@](CN[C@H]1CC[C@H](O)CC1)(c1ccccc1)O2 (atropisomer, axis not shown) [Example 72, 2-((2S,4S)-5-chloro-6-fluoro-2-(((trans-4-hydroxycyclohexyl)amino)methyl)-2-phenyl-2,3-dihydrobenzofuran-4-yl)-4-(difluoromethoxy)-3-fluorobenzamide] | 9.8 µM | 0.072 µM | > 10 µM | 0.002 µM | 0.039 µM
